Source: article PMC7309601 (Frontiers in Neuroscience, 2020)
Entries after “also recorded” stand apart in the source; their conditions may differ.

Tests used:
astrocyte Cx expression = tested on: astrocyte Cx expression; parameters: method as in Biswas et al., 2018; settings: ref Biswas et al., 2018; cited from earlier work
scopolamine-treated mice [1] = assay: Novel object recognition (NOR) task after scopolamine challenge; type: in vivo; settings: scopolamine 0.5 mg/kg s.c.
Method: (§1) Both novel object recognition (NOR) and novel object location (NOL) tests were carried out in an open-field arena during three phases ([Leger et al., 2013]; [Vogel-Ciernia and Wood, 2014]; [Lueptow, 2017]). (i) For the habituation phase on the first day, mice were allowed to freely explore the empty apparatus. (ii) On the second day, two identical objects were placed at two opposite edges of the arena. Time spent by the mouse exploring the two objects was recorded. (iii) Twenty-four hours later, one of the two familiar objects was replaced by a novel one (NOR) or displaced (NOL). Mice were allowed to explore the whole arena during 10 min for each of the three phases. The preference index was calculated as the ratio of the duration of contacts with the novel/displaced object over the total duration of contacts with the two objects. Locomotion was recorded using EthoVision software (Noldus, Paris, France).

scopolamine-treated mice [2] = assay: Y-maze spontaneous alternation task after scopolamine challenge; settings: for Spontaneous alternation (Y-maze): effect on scopolamine-induced deficit: scopolamine 0.5 mg/kg s.c.
Method: Mefloquine (Sigma-Aldrich, L’Isle d’Abeau Chesnes, France) and DPZ (Sigma-Aldrich) were dissolved in 2% dimethyl sulfoxide (DMSO) and administered acutely either intraperitoneally (i.p.) (5 mL/kg) or by oral gavage (p.o.) (10 mL/kg). Scopolamine (Sigma-Aldrich) was administered subcutaneously (s.c.) (5 mL/kg) in saline solution (0.9% NaCl).
Mice were placed at the end of one arm of a Y-maze and allowed to move freely through the maze during an 8-min session. Spontaneous alternation was defined as entries into all three arms on consecutive occasions. […] The number of total arm entries during the 8-min session was used to quantify locomotor activity.

[3] = tested on: scopolamine-treated mice injected with sh-GFP, sh-Cx30 or sh-Cx43; assay: Novel object location (NOL) task in lentiviral vector-injected, scopolamine-treated mice; type: in vivo
[4] = tested on: ACh outflow in the hippocampus; assay: Hippocampal microdialysis and quantification of ACh; type: in vivo, mice
Method: Mice were anesthetized with isoflurane, placed in a stereotaxic frame and bilaterally implanted with probes in both left and right hippocampi.
Concentrations of ACh in the microdialysis samples were analyzed by the Pronexus Analytical AB company (Stockholm, Sweden) using UHPLC tandem mass spectrometry (MS/MS). Briefly, the UHPLC-MS/MS system included a PAL autosampler (CTC Analytics, Zwingen, Switzerland), an Advance UHPLC pump, and an EVOQ Elite triple quadrupole mass spectrometer (Bruker Daltonics, Fremont, CA, United States) equipped with electrospray ionization source operating in a positive mode at +4,500 V. The source parameters were as follows: probe gas flow: 50, nebulizer gas flow: 60, probe temperature: +300°C, cone gas flow: 30, cone temperature: +200°C, CID gas: Ar 1.5 mTorr. A Titan PFP column (100 × 2.1 mm, 1.9 μm, 120 Å pore size) purchased from Sigma-Aldrich (Sweden) was used for UHPLC. Deuterated ACh (acetylcholine-1,1,2,2-d4 bromide; ACh-d4), used as internal standard, was purchased from C/D/N Isotopes (QMX Laboratories, Dunmow CM6 2PY, United Kingdom). Typically, 10 μL of aCSF or hippocampal microdialysate was mixed with 20 μL of ACh-d4 internal standard (50 nM, in aCSF), and 5 μL of the mixture was injected into the column. The mobile phase A was 0.1% (vol/vol) formic acid in water; the mobile phase B was acetonitrile with 0.1% formic acid. The linear elution gradient was as follows: 0–0.5 min: 5% B; 3.5 min: 55% B; 3.6 to 4.0 min: 70% B; 4.1 min, 5% B. The flow rate was 400 μL/min, and the total run-to-run time was 4.8 min. The calibration curve was linear in the range of 0.1 to 409.6 nM ACh (R^2 = 0.999); the estimated limit of detection was 0.05 nM, and the lower limit of quantification was 0.15 nM.
. 1 mg/kg, i.p.), or vehicle (NaCl 0.9%). Values are expressed as means ± SEM, n = 4–7 per group. Two-way ANOVA followed by Fisher least significant difference: *P < 0.05, **P < 0.01 vs Vehicle; […]. Acetylcholinesterase activity is expressed as percent of that determined in the absence of drugs. […]

[5] = tested on: Aβ25–35 peptide-injected mice; assay: Morris water maze in Aβ25–35-injected mice
Description: Control groups received the vehicles only under the very same conditions (volume, time, route of administration) as tested drugs.
Both peptides Aβ25–35 and Sc.Aβ (scramble Aβ25–35) were purchased from PolyPeptides (Strasbourg, France).
Mice were placed in a circular pool with external cues in the room. […] Training consisted of three swims with 20-min intertrial time each day for 5 days, performed between days 11 and 15 after Aβ25–35 peptide or Sc.Aβ peptide i.c.v. injection. Random starting positions were selected each day, and each animal was allowed a 90-s swim to find the platform. Probe test was performed 24 h after the last swim (day 16 after peptide injection). The platform was removed, and each animal was allowed a free 60-s swim. The time spent in each quadrant was determined. Swimming was recorded using EthoVision software (Noldus).

[6] = tested on: Cx-mediated astroglial cellular coupling; parameters: method as in Jeanson et al., 2016; settings: same concentration range as reached under the treatment conditions; ref Jeanson et al., 2016; cited from earlier work
mouse hippocampus AChE = molecular target: T1, mouse hippocampus AChE (Mus musculus, UniProt P21836); type: biochemical
T1 construct: from tissue; host or cells: mouse hippocampus homogenate, cleared supernatant
T1 sequence (P21836 32-614): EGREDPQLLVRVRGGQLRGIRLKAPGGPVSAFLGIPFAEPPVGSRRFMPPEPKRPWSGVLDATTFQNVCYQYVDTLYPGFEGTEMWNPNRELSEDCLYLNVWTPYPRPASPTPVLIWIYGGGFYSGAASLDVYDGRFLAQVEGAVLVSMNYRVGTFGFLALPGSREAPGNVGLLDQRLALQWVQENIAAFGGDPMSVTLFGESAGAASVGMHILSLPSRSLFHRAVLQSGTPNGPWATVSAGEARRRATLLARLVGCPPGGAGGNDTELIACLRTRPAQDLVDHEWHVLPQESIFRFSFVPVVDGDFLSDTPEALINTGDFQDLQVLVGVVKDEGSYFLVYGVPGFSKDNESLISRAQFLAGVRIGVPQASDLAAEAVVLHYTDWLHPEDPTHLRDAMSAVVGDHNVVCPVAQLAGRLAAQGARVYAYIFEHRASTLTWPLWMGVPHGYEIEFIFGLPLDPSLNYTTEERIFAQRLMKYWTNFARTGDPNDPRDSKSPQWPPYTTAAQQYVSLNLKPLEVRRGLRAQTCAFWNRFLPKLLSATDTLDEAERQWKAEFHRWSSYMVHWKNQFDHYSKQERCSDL
Method: Acetylcholinesterase activity was quantified using a cholinesterase activity assay kit according to manufacturer’s recommendations (MAK119; Sigma, St. Louis, MO, United States). Briefly, mouse hippocampus was homogenized (10 μL/mg) in 0.1 M Na/K phosphate buffer (PB) (pH 7.5) at 4°C followed by centrifugation at 30,000 × g for 5 min. […] Absorbance at 415 nm was quantified using VICTOR plate reader (Perkin–Elmer Inc., Waltham, Massachusetts, United States) at 2-min intervals from time 0 (tissue sample addition) up to 10 min. Acetylcholinesterase activity was expressed as units/L. One unit of AChE is the amount of enzyme that catalyzes the production of 1.0 μmol of thiocholine per minute at room temperature at pH 7.5.
Acetylcholinesterase activity is expressed as percent of that determined in the absence of drugs.

5-HT3 receptors = molecular target: 5-HT3 receptors; parameters: method as in Thompson et al., 2007; Janowsky et al., 2014; settings: ref Thompson et al., 2007; Janowsky et al., 2014; cited from earlier work
in vivo = settings: rat
Method: Drugs were administered p.o., once per day for 14 days.
Blood was collected on the 14th treatment day, just prior to drug administration (T0) and then 30 min, 1, 2, 4, 8, and 24 h later. Blood was collected by retro-orbital puncture except for the last collection, which was made by intracardiac puncture. After coagulation, blood samples were centrifuged at 3,000 × g for 15 min, and serum was collected and stored at −80°C. Rats were sacrificed by decapitation immediately after the last blood collection, and their brains including brainstem and cerebellum were removed as one piece, placed on tinfoil precooled on dry ice and stored at −80°C until drug quantifications.
One volume of brain or serum samples was added to three volumes of human serum EDTA K3, and the mixture was homogenized under magnetic stirring for 15 min for analysis using a Sciex API4000 Qtrap mass spectrometer coupled to a Shimadzu HPLC system (Shimadzu Corporation, Marne-la-Vallée, France).
(A,C) Blood samples were collected before treatment (T0) and then at 0.5, 1, 2, 4, 8, and 24 h after the last administration on day 14. (B,D) Brain samples were collected on day 15, 24 h after the last drug administration. […] No statistical analysis applicable (C,D). Bars in black indicate combination treatments.

5-HT1A = molecular target: 5-HT1A; parameters: method as in Thompson et al., 2007; Janowsky et al., 2014; settings: ref Thompson et al., 2007; Janowsky et al., 2014; cited from earlier work
[7] = tested on: Aβ25–35 peptide-injected mice; assay: Novel object recognition (NOR) task in Aβ25–35-injected mice; type: in vivo
Method: as §1

[8] = rat, in vivo; cited from earlier work
[9] = molecular target: noradrenaline transporters; parameters: method as in Janowsky et al., 2014; settings: ref Janowsky et al., 2014; cited from earlier work
5-HT2C = molecular target: 5-HT2C; parameters: method as in Thompson et al., 2007; Janowsky et al., 2014; settings: ref Thompson et al., 2007; Janowsky et al., 2014; cited from earlier work
sigma-1 receptor = molecular target: T2, sigma-1 receptor (Homo sapiens, UniProt Q99720); assay: Eurofins CEREP sigma-1 receptor test; type: binding; settings: MEF at a concentration as high as 1 μM; data not shown
T2 construct: Eurofins CEREP
T2 sequence (Q99720 whole entry, species assumed): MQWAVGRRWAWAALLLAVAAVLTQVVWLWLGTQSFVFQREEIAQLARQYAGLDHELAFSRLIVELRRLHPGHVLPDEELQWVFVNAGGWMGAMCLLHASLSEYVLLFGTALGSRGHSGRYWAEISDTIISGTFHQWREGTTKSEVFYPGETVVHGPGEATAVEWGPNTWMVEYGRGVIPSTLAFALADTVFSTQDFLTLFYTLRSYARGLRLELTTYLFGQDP

## COc1cc2c(cc1OC)C(=O)C(CC1CCN(Cc3ccccc3)CC1)C2 (stereo not shown) [DPZ, Donepezil]
Astrocyte Cx expression
  Astrocyte Cx expression levels: not to significantly alter astrocyte Cx expression levels
scopolamine-treated mice [1]; DPZ 0.25 mg/kg i.p.
  NOR test session: effect on scopolamine-induced loss of novel object preference: Neither MEF1 i.p., nor DPZ0.25 i.p., prevented the scopolamine effect
scopolamine-treated mice [1]; DPZ 1 mg/kg i.p.
  NOR test session: effect on scopolamine-induced loss of novel object preference: restore exploration preference of the novel object
scopolamine-treated mice [2]; DPZ 0.1 mg/kg i.p. 40 min before task
  Spontaneous alternation (Y-maze): effect on scopolamine-induced deficit: exerted no effect
scopolamine-treated mice [2]; DPZ 0.25 mg/kg p.o. 40 min before task
  Spontaneous alternation (Y-maze): effect on scopolamine-induced deficit: did not reverse scopolamine-induced deficit
scopolamine-treated mice [2]; DPZ 0.5 mg/kg i.p. 40 min before task
  Spontaneous alternation (Y-maze): effect on scopolamine-induced deficit: significantly reversed the scopolamine-induced deficit
[3]; DPZ 0.25 mg/kg i.p., sh-Cx30 group
  NOL task: effect on scopolamine-induced memory deficit: significantly reduced the scopolamine effect
[3]; DPZ 0.25 mg/kg i.p., sh-Cx43 group
  NOL task: effect on scopolamine-induced memory deficit: significantly reduced the scopolamine effect
[3]; DPZ 0.25 mg/kg i.p., sh-GFP injected mice
  NOL task: effect on scopolamine-induced memory deficit: unable to prevent the memory deficit caused by scopolamine
[3]; DPZ 1 mg/kg i.p., all groups (sh-GFP, sh-Cx30, sh-Cx43)
  NOL task: effect on scopolamine-induced memory deficit: able to prevent NOL memory deficits induced by scopolamine
[4]; DPZ 0.25 mg/kg i.p. alone
  Hippocampal ACh outflow: did not significantly modify ACh outflow
[4]; DPZ 1 mg/kg i.p., 20 min after injection
  Increase of hippocampal ACh levels: up to 2.5 fold
[5]; DPZ 0.25 mg/kg p.o. daily
  Morris water maze learning (swim latency): effect on Aβ-induced memory deficit: showed no effect
[5]; DPZ 1 mg/kg p.o. daily, day 16
  Morris water maze probe test: time spent in target quadrant: restored performance up to the level noted in Sc.Aβ-injected control mice
[5]; DPZ 1 mg/kg p.o. daily, learning days 2 to 5
  Morris water maze learning (swim latency): effect on Aβ-induced memory deficit: significantly reversed the Aβ-induced memory deficits

## OC(c1cc(C(F)(F)F)nc2c(C(F)(F)F)cccc12)C1CCCCN1 (stereo not shown) [MEF, Mefloquine]
[6]
  Cx-mediated astroglial cellular coupling: efficiently reduces Cx-mediated astroglial cellular coupling
Mouse hippocampus AChE; MEF 0.5–4 μM added to DPZ, brain extracts
  Effect of MEF on the potency of DPZ to inhibit AChE activity: did not modify the potency of DPZ to inhibit AChE activity; also recorded: failed to affect DPZ-induced inhibition of AChE activity
Mouse hippocampus AChE; even at 10 times the concentration reached in the brain
  Effect of MEF on AChE activity: devoid of any effect on AChE activity
scopolamine-treated mice [1]; MEF 1 mg/kg i.p.
  NOR test session: effect on scopolamine-induced loss of novel object preference: Neither MEF1 i.p., nor DPZ0.25 i.p., prevented the scopolamine effect
5-HT3 receptors
  Ki: > 1 µM
In vivo
  concentration at 24 h: ~500 nM
5-HT1A
  Ki: > 1 µM
[7]; MEF 1 mg/kg p.o. daily from day 1, Aβ25–35 i.c.v.
  NOR test phase: effect on Aβ-induced impairment (preference index): did not reverse the Aβ-induced impairment
[8]
  Crossing of the blood–brain barrier: able to cross the blood–brain barrier
[4]; MEF 1 mg/kg i.p. alone
  Hippocampal ACh outflow: did not significantly modify ACh outflow
[5]; MEF 1 mg/kg p.o. daily
  Morris water maze learning (swim latency): effect on Aβ-induced memory deficit: showed no effect
[9]
  Ki: > 1 µM
5-HT2C
  Ki: > 1 µM
sigma-1 receptor
  Interference with sigma-1 receptor: does not interfere with sigma-1 receptor

## CN1[C@@H]2C[C@@H](OC(=O)[C@H](CO)c3ccccc3)C[C@H]1[C@@H]1O[C@@H]12 [scopolamine, Scopolamine]
scopolamine-treated mice [1]
  NOR test session: effect of scopolamine on exploration of the novel object: abolished the increase in exploration time of the novel object
scopolamine-treated mice [2]; scopolamine 0.5 mg/kg s.c. 20 min before task
  Spontaneous alternation (Y-maze): effect of scopolamine vs vehicle-treated mice: significantly impaired spontaneous alternation
[3]; scopolamine 0.5 mg/kg s.c., all LV-injected mice
  NOL task: preference index for the displaced object: ~50%

## Aβ: Aβ25–35 peptide injected i.c.v. to induce Alzheimer’s disease–like memory deficits (GSNKGAIIGLM; Amyloid-beta protein 42; UniProt P05067 696-706, looked up, fragment)
[7]; 9 nmol Aβ25–35 i.c.v.
  NOR test phase: effect of Aβ administration on exploration of the novel object: abolished the increase in exploration time of the novel object
[5]; 9 nmol Aβ25–35 i.c.v., learning days 3–5
  Morris water maze learning: effect of Aβ i.c.v. injection vs Sc.Aβ: induced a significant memory deficit
